{"source": "paper PMC10609940", "about": "“Systemic Dendrimer-Peptide Therapies for Wet Age-Related Macular Degeneration” (Pharmaceutics, 2023)", "key": {"[1]": {"tested_on": "VEGF-A expression in HUVEC", "experiment": "VEGF-A expression by endothelial cells (qPCR)", "format": "cell-based, human", "conditions": "HUVEC coincubated with VEGF-A"}, "HUVEC cells [2]": {"tested_on": "HUVEC cells", "experiment": "In vitro vessel (tube) formation assay on Matrigel", "format": "cell-based, human", "procedure": "First, 96-well plates were coated with 75 µL of Matrigel and left at room temperature for 15 min before being placed into 37 °C incubators for an additional 30 min. Then, D-ALG1001 was dissolved at twice the desired concentration and 50 µL of the drug solution was added to the wells. HUVEC cells were then added to each well at a density of 70,000 cells/cm^2. Live-cell images were taken at 12 h for analysis.\nTo compare the dose–response efficacy of free and D-ALG in a physiologically relevant model, we utilized an in vitro model of blood vessel formation. HUVEC cells were treated with a gradient concentration of D-ALG and ALG-1001 for 24 h at three different magnitudes of doses. The cells were then seeded on Matrigel after which cells naturally migrate to form blood vessel-like tubule structures. The images were analyzed with the Angiogenesis Analyzer plug-in on ImageJ to extract relevant metrics that measure the connectivity and integrity of tube networks (Figure 3A and Figure S8).\nFigure 3 In vitro inhibition of vessel formation. (A) Image analysis of HUVECs seeded onto a Matrigel matrix using the Angiogenesis Analyzer plug-in for ImageJ. […]"}, "HUVEC cells [3]": {"tested_on": "HUVEC cells", "experiment": "Wound-healing (scratch) assay", "format": "cell-based, human", "conditions": "HUVEC monolayer pretreated 24 h; 24 h after injury; dose not stated", "procedure": "HUVEC cells were seeded at a density of 5 × 10^4 cells per well in 24-well plates and set aside for at least 72 h for a uniform monolayer of cells to form. Cells were treated with D-ALG1001 and ALG-1001 for 24 h. A centimeter-long scratch was introduced to the cell monolayer with the tip of a 200 µL pipette tip. Images were taken on a Nikon\nIn addition to cell morphological and motility changes measured by tube formation assays, we investigated the activity of D-ALG and ALG-1001 in a wound-healing assay. Previous studies have utilized this method to assess cell migration and proliferation. Monolayers of HUVECs were pretreated with D-ALG or ALG-1001 followed by scratching the monolayer with a pipette tip. Images were taken at the time of the wound and at 24 h after injury. The proliferative activity of endothelial cells can be measured by the area that was healed postinjury to the monolayer. Untreated cells managed to heal up to 80% of the initial damage after 24 h, while cells treated with D-ALG and ALG-1001 healed up to 50% of the initial wound area. […] Because neovascularization is driven in part by the proliferation and migration of endothelial cells in the disease area, reductions in these activities as observed in cells treated with D-ALG can modulate endothelial cell contributions to the neovascularization process."}, "[4]": {"tested_on": "FAK, p-FAK (Y397), p44/42 ERK, phospho-p44/42 ERK in choroidal tissue", "experiment": "ELISA of FAK and ERK pathway activation in choroid, laser CNV model", "format": "in vivo, Brown Norway rats", "conditions": "150 µg peptide basis i.p. every 4 days", "procedure": "(§1) On the day of CNV induction (Day 0), D-ALG1001 and ALG1001 was administered intraperitoneally at a dose of 150 µg on a peptide basis. Subsequent doses were administered every 4 days. At days 7 and 14, mice were sacrificed and enucleated. Eyes used for CNV image were fixed in 10% formalin for 1 h. Eyes used for qPCR, ELISA, and Western blotting were immediately stored at −80 °C until use.\nIn brief, 500 µL of T-Per supplemented with PhosStop and proteinase inhibitor cocktail was added to tubes containing dissected choroid. A scoop of 1.6 mm steel homogenization beads was added to each sample and then placed in TissueLyserLT (Qiagen, Germantown, MD, USA) at an oscillation frequency of 50 cycles/s for 15 min.\nFor protein extracted from tissues, total FAK and FAK (Phospho) [pY397] ELISA kits (Invitrogen) were used to quantify the level of protein expression, and the measured protein expression was normalized to the total protein amount of each sample as determined from BCA assays.\nTo evaluate the activation of FAK and ERK pathways, eyes were enucleated at set time points, and the choroidal tissue dissected out. Tissues were submerged in a mixture of T-per, proteinase inhibitor, and PhosStop with stainless-steel homogenization beads and homogenized to produce protein extracts. Total FAK, total ERK, p-FAK (Y397), and p-44/42 ERK ELISA kits were used to quantify the amount of total and phosphorylated proteins in FAK and ERK pathways. […] However, the level of total FAK protein in ALG-1001-treated animals was elevated at day 14."}, "[5]": {"tested_on": "choroidal neovascularization (CNV) area", "experiment": "In vivo attenuation of CNV formation, intraperitoneal dosing, laser CNV model", "parameters": "species or system Brown Norway rats", "procedure": "as §1\n(§2) Eyes were mounted by introducing four radial relaxation cuts. […] All images were processed with ImageJ.\nWe then evaluated whether the improved protection and targeting of D-ALG allowed for less invasive administration routes. A laser was used to induce CNV at day 0, and the first dose (150 µg peptide basis) of ALG-1001 and D-ALG was administered intraperitoneally. The animals were dosed once every 4 days at 150 µg of peptide basis (7.5 mg/kg). Choroidal flatmounts of eyes at day 7 and 14 were imaged, and the CNV area was calculated using ImageJ."}, "[6]": {"tested_on": "IL1β and TNFα expression in RAW264.7 cells", "experiment": "In vitro inflammation model, LPS-stimulated macrophages (qPCR)", "format": "cell-based, Murine", "conditions": "24 h pretreatment, LPS 3 h"}, "[7]": {"tested_on": "phospho-ERK1/2 and phospho-FAK (Y397) in HUVEC cells", "experiment": "Western blot of ERK and FAK pathway activation after VEGF stimulation", "format": "cell-based, human", "conditions": "100 µM on a peptide basis, 24 h pretreatment, VEGF 5 min; trend", "procedure": "HUVEC cells were seeded at a density of 5 × 10^4 cells per well in 24-well plates 24 h before treatment. Cells were treated with D-ALG1001 and ALG-1001 for 24 h before activation with VEGF for 5 min. Cells were collected and lysed for Western blotting using T-Per buffer (ThermoFisher) supplemented with PhosStop and proteinase inhibitor cocktail. Cells were lysed with Trizol and processed as previously described for qPCR analysis.\nIn brief, the concentration of protein was determined with the BCA protein assay kit (Thermo Scientific, Rockford, IL, USA). Equal amounts of protein were denatured and resolved on 4–15% TGX gels (Bio-Rad, Hercules, CA, USA). Gels were transferred to nitrocellulose membranes, blocked with 3% BSA at RT for 1 h and probed for GAPDH, FAK, pFAK, MAPK, and pMAPK at 4 °C overnight. Membranes were washed thrice before incubation with HRP-conjugated secondary antibodies followed by incubation with chemiluminescent substrate for visualization.\nTo elucidate the mechanism through which D-ALG and free ALG-1001 influence angiogenic function, we pretreated the cells with D-ALG and free ALG-1001 for 24 h. The cells were then stimulated with a high dose of exogenous VEGF for 5 min after which the samples were collected for Western blotting. […]"}, "[8]": {"tested_on": "choroidal neovascularization (CNV) area", "experiment": "In vivo attenuation of CNV formation, intravitreal injection, laser CNV model", "parameters": "species or system Brown Norway rats", "conditions": "intravitreal injection after CNV induction; day 7", "text": "as §2\nA Micron III SLO scope and a laser attachment were used to induce CNV formation in mice. The laser CNV model was chosen due to its consistency in creating CNV and the progression of the CNV process. We first evaluated whether dendrimer conjugation impeded the peptide from attenuating CNV by first injecting free ALG-1001 and D-ALG intravitreally after CNV induction. The eyes were then collected on day 7 and the CNV area quantified."}, "[9]": {"tested_on": "VEGF-A, TNFα, IL1β expression in choroid", "experiment": "qPCR of VEGF-A, TNFα and IL1β in choroid, laser CNV model", "format": "in vivo, Brown Norway rats", "conditions": "150 µg peptide basis i.p. every 4 days, days 7 and 14, trend"}}, "note": "Where a SMILES comes first, the peptide text is derived from it. [ ]: non-standard residue; d: D form. Cya = N[C@@H](CS(=O)(=O)O)C(=O)O", "data": [{"smiles": "C[C@@H](O)[C@H](NC(=O)[C@H](CS(=O)(=O)O)NC(=O)CNC(=O)[C@H](CCCNC(=N)N)NC(=O)CN)C(=O)N1CCC[C@H]1C(=O)O", "note": "[ALG-1001] (H-GRG[Cya]TP-OH; N-terminus and C-terminus assumed)", "values": [{"measurement": "VEGF production compared to the control", "setting": "[1]", "result": "did not have statistically significant increases"}, {"measurement": "vessel formation compared to untreated cells", "setting": "HUVEC cells [2]; 1 mM, Angiogenesis Analyzer, ImageJ", "result": "significantly reduced vessel formation"}, {"measurement": "vessel formation, effect of lower doses", "setting": "HUVEC cells [2]; doses below 1 mM", "result": "not effective"}, {"measurement": "initial wound area healed", "setting": "HUVEC cells [3]", "result": "up to 50%"}, {"measurement": "total ERK", "setting": "[4]; day 7", "result": "remained relatively constant"}, {"measurement": "total ERK compared to untreated animals", "setting": "[4]; day 14", "result": "slight trend in the reduction"}, {"measurement": "total FAK protein", "setting": "[4]; day 14", "result": "elevated"}, {"measurement": "p-FAK protein compared to untreated controls", "setting": "[4]; days 7 and 14", "result": "trend in the reduction"}, {"measurement": "reduction of CNV area on day 14", "setting": "[5]; 150 µg peptide basis (7.5 mg/kg) intraperitoneally every 4 days, choroidal flatmounts, ImageJ", "result": 20, "unit": "%"}, {"measurement": "CNV area at day 14 (in words)", "setting": "[5]; 150 µg peptide basis intraperitoneally every 4 days", "result": "recovered"}, {"measurement": "impact on IL1β production", "setting": "[6]; high and low dose", "result": "no impact"}, {"measurement": "reduction of TNFα expression", "setting": "[6]; high dose 1 mM", "result": 20, "unit": "%"}, {"measurement": "phospho-ERK1/2 expression compared to untreated, VEGF stimulated controls", "setting": "[7]", "result": "lower levels"}, {"measurement": "phospho-FAK expression compared to untreated, VEGF stimulated controls", "setting": "[7]", "result": "lower levels"}, {"measurement": "formation of CNV after intravitreal administration", "setting": "[8]", "result": "significantly inhibited the formation of CNV"}, {"measurement": "IL1β expression", "setting": "[9]", "result": "only reduced at day 14"}, {"measurement": "TNFα level (relative expression)", "setting": "[9]", "result": "lower TNFα levels across both time points"}, {"measurement": "VEGF-A production (relative expression)", "setting": "[9]", "result": "lower VEGF-A production at 14 days only"}]}]}
